Assay results from patent publication US20260199500A1, “Camptothecin Derivative, Conjugate Thereof, Preparation Method Therefor and Medical Use Thereof” (priority 2023, published 2026).

Tests used:
[1] = tested on: Colo-205 (Colon) cells; test: Inhibition of Colo-205 cells by compounds; type: cell-based; details: PY-X (DXD) set to 1
Description: (§1) On the day of the experiment, the cells were digested with 0.25% trypsin (Gibco, 25200-072), filtered through a 40 μm sieve, diluted with the corresponding medium to a cell density of 1×10^4 cells/mL, and inoculated into a 96-well white cell culture plate (Beyotime, FCP968), with 100 μL of cells added per well. The culture plate was placed in a 37° C. incubator (Thermo 311) containing 5% C02 and incubated for 24 hours. On the second day, the samples to be tested were prepared as a stock solution at a final concentration of 1M in DMSO (Sigma, D1650), then diluted with the corresponding medium to a final concentration of 200 nM, and subjected to four-fold serial dilutions, resulting in a total of 9 concentrations. 100 μL of the diluted sample was added to each well of the 96-well plate. The plate was placed in a 37° C. incubator containing 5% CO2 and incubated for 144 hours. The cell culture plate was then removed, and 100 μL of the cell viability assay reagent (CellTiter-Glo® Luminescent Cell Viability Assay, Promega, G7571) was added to each well. The reaction was carried out in the dark at room temperature for 5 minutes. Luminescence values were read using a microplate reader (TECAN SPARK), and data were processed using Graphpad Prism 7 software.

[2] = tested on: H82 (SCLC) cells; test: Inhibition of H82 cells by compounds; type: cell-based; details: PY-X (DXD) set to 1
Description: as §1

[3] = tested on: HT-29 (Colon) cells; test: Inhibition of HT-29 cells by compounds; type: cell-based; details: PY-X (DXD) set to 1
Description: as §1

[4] = tested on: A549 (NSCLC) cells; test: Inhibition of A549 cells by compounds; type: cell-based; details: PY-X (DXD) set to 1
Description: as §1

[5] = tested on: SW1573 (NSCLC) cells; test: Inhibition of SW1573 cells by compounds; type: cell-based; details: PY-X (DXD) set to 1
Description: as §1

[6] = tested on: H1437 (NSCLC) cells; test: Inhibition of H1437 cells by compounds; type: cell-based; details: PY-X (DXD) set to 1
Description: as §1

[7] = tested on: SW1990 (Pancreatic) cells; test: Inhibition of SW1990 cells by compounds; type: cell-based; details: PY-X (DXD) set to 1
Description: as §1

[8] = tested on: H1650 (NSCLC) cells; test: Inhibition of H1650 cells by compounds; type: cell-based; details: PY-X (DXD) set to 1
Description: as §1

[9] = tested on: PANC-1 (Pancreatic) cells; test: Inhibition of PANC-1 cells by compounds; type: cell-based; details: PY-X (DXD) set to 1
Description: as §1

[10] = Log D of small molecules (1-octanol / phosphate buffer pH 2.5 and pH 7.4, LC-MS/MS); type: physicochemical
Description: (1) Preparation of 100 mM phosphate buffer (PB) solution at pH 2.5 and pH 7.4 respectively: • a. Preparation of a solution of 100 mM H3PO4 in water: 14.7 M H3PO4 was diluted with water to a concentration of 100 mM H3PO4, and the pH was measured to be approximately 1.8. • b. Preparation of 100 mM NaH2PO4: 5.999 g of NaH2PO4 was dissolved in 500 mL of water and the pH was measured to be approximately 4.5. • c. Preparation of 100 mM Na2HPO4: 7.098 g of Na2HPO4 was dissolved in water to a volume of 500 mL and the pH was measured to be approximately 9.4. • d. Preparation of 100 mM PB (pH 2.5): 15 mL of 100 mM H3PO4 was added to a 50 mL tube, and then pH was adjusted to 2.5±0.05 with 100 mM NaH2PO4. • d. Preparation of 100 mM PB (pH 7.4): 15 mL of 100 mM Na2HPO4 was added to a 50 mL tube, and then pH was adjusted to 7.4±0.05 with 100 mM NaH2PO4.
(2) Saturation of PBs (pH 2.5 and pH 7.4) with 1-octanol: 10 mL of 1-octanol was added to 100 mL of 100 mM PBs (pH 2.5 and pH 7.4), and the mixture was shaken vigorously, and then allowed to stand overnight at room temperature for later use.
(3) Saturation of 1-octanol with PBs (pH 2.5 and pH 7.4): 10 mL of 100 mM PBs (pH 2.5 and pH 7.4) was added to 100 mL of 1-octanol, and the mixture was shaken vigorously, and then allowed to stand overnight at room temperature for later use.
2.1) 2 μL of 10 mM DMSO stock solution of the test compound were dispensed into test tubes, in duplicate.
2.2) 149 μL of PB saturated with 1-octanol (pH 2.5 and 7.4) were added to the tubes.
2.3) 149 μL of PB (pH 2.5 and 7.4) saturated with 1-octanol were added to the corresponding tubes.
2.4) Each tube was vigorously mixed for 2 minutes, then shaken at 800 rpm for 1 hour at room temperature.
2.5) The tubes were centrifuged at 4000 rpm for 5 minutes at room temperature.
2.6) Appropriate volumes of the buffer phase and 1-octanol phase samples were aliquoted.
2.7) These samples were diluted and analyzed using LC-MS/MS without running a calibration curve.
2.8) Data analysis: The log D value of each compound was calculated using the following formula: f

[11] = tested on: MDA-MB-468 breast cancer cells; test: Inhibitory activity of compounds on MDA-MB-468 breast cancer cells (CellTiter-Glo); type: cell-based; details: IC50 of PY-X (DXD) set to 1; values are ratios of measured IC50 to DXD
Description: as §1
(§2) PY—Y is referenced in the document (WO2022170971A1); and PY-A is referenced in the document (WO2021148501A1).

[12] = tested on: N87 gastric cancer cells; test: Inhibitory activity of compounds on N87 gastric cancer cells (CellTiter-Glo, 144 h); type: cell-based; details: IC50 of PY-X (DXD) set to 1; values are ratios of measured IC50 to DXD; 144 h
Description: as §1, §2

Compound: CC[C@@]1(O)C(=O)OCc2c1cc1n(c2=O)Cc2c-1nc1cc(Cl)c(CN)c3c1c2CCC3 [PY-36, (S)-4-(aminomethyl) 5-chloro-9-ethyl-9-hydroxy-1,2,3,9,12,15-hexahydro-10 h,13 h-benzo[de]pyrano[3′,4′:6,7]indolizino[1,2-b]quinolin-10,13-dione]
- IC50 in Colo-205 cells, ratio to DXD [1]: 0.9857
- IC50 in H82 cells, ratio to DXD [2]: 1.5585
- IC50 in HT-29 cells, ratio to DXD [3]: 0.4909
- IC50 in A549 cells, ratio to DXD [4]: 0.4500
- IC50 in SW1573 cells, ratio to DXD [5]: 0.7619
- IC50 in H1437 cells, ratio to DXD [6]: 1.1187
- IC50 in SW1990 cells, ratio to DXD [7]: 1.3305
- IC50 in H1650 cells, ratio to DXD [8]: 0.8758
- IC50 in PANC-1 cells, ratio to DXD [9]: 0.6317

Compound: CC[C@@]1(O)C(=O)OCc2c1cc1n(c2=O)Cc2c-1nc1cc(F)c(C)c3c1c2[C@@H](NC(=O)CO)CC3 [PY-X (DXD), exatecan DXD, reference compound]
- Log D2.5 (Oct/buff) Result ([10]; 1-octanol / phosphate buffer pH 2.5): 1.68
- Log D7.4 (Oct/buff) Result ([10]; 1-octanol / phosphate buffer pH 7.4): 1.67
- IC50 on 468 cells, ratio to DXD [11]: 1.0000
- IC50 on N87 cells, ratio to DXD [12]: 1.0000

Compound: CC[C@@]1(O)C(=O)OCc2c1cc1n(c2=O)Cc2c-1nc1cc(F)c(CCN)c3c1c2CCC3 [PY-20]
- IC50 on 468 cells, ratio to DXD [11]: 1.2806
- IC50 on N87 cells, ratio to DXD [12]: 1.0070

Compound: CC[C@@]1(O)C(=O)OCc2c1cc1n(c2=O)Cc2c-1nc1cc(F)c(OC)c3c1c2CCC3 [PY-11, (S)-9-ethyl-5-fluoro-9-hydroxy-4-methoxy-1,2,3,9,12,15-hexahydro-10H,13H-benzo[de]pyrano[3′,4:6,7]indolizino[1,2-b]quinolin-10,13-dione]
- IC50 on 468 cells, ratio to DXD [11]: 0.9642
- IC50 on N87 cells, ratio to DXD [12]: 0.0606

Compound: CC[C@@]1(O)C(=O)OCc2c1cc1n(c2=O)Cc2c-1nc1cc(F)c(OCCN)c3c1c2CCC3 [PY-17, (S)-4-(2-aminoethoxy)-9-ethyl-5-fluoro-9-hydroxy-1,2,3,9,12,15-hexahydro-10H,13H-benzo[d]pyrano[3′,4′:6,7]indolizino[1,2-b]quinolin-10,13-dione]
- IC50 on 468 cells, ratio to DXD [11]: 8.0396
- IC50 on N87 cells, ratio to DXD [12]: 3.7859

Compound: CC[C@@]1(O)C(=O)OCc2c1cc1n(c2=O)Cc2c-1nc1ccc(CO)c3c1c2CCC3 [PY-37A, (S)-9-ethyl-9-hydroxy-4-(hydroxymethyl)-1,2,3,9,12,15-hexahydro-10 h,13 h-benzo[de]pyrano[3′,4′:6,7]indolizino[1,2-b]quinolin-10,13-dione]
- IC50 in Colo-205 cells, ratio to DXD [1]: 0.2763
- IC50 in H82 cells, ratio to DXD [2]: 0.4153
- IC50 in HT-29 cells, ratio to DXD [3]: 0.2181
- IC50 in A549 cells, ratio to DXD [4]: 0.2044
- IC50 in SW1573 cells, ratio to DXD [5]: 0.2884
- IC50 in H1437 cells, ratio to DXD [6]: 0.2619
- IC50 in SW1990 cells, ratio to DXD [7]: 0.2986
- IC50 in H1650 cells, ratio to DXD [8]: 0.2611
- IC50 in PANC-1 cells, ratio to DXD [9]: 0.1992

Compound: CC[C@@]1(O)C(=O)OCc2c1cc1n(c2=O)Cc2c-1nc1cc(F)c(COC(=O)NCCO)c3c1c2CCC3 [PY-27(10Car), (S)-(9-ethyl-5-fluoro-9-hydroxy-10,13-dioxy-2,3,9,10,13,15-hexahydro-1H,12H-benzo[d]pyrano[3′,4′:6,7]indolizino[1,2-b]quinolin-4-yl)methyl(2-hydroxyethyl)carbamate]
- IC50 on 468 cells, ratio to DXD [11]: 3.7610
- IC50 on N87 cells, ratio to DXD [12]: 3.3500
